This note sets out measurements from patent publication US8883801B2, “Substituted pyrazolo[1,5-a]pyrimidines as mTOR inhibitors” (Merck Sharp & Dohme Corp., priority 2010, dated 2014).

Molecules are shown by their SMILES. pIC50: −log10 of the molar value.

The subject of assay [1] is mTORC2 activity: phosphorylated AKT Ser473 (pAKT S473) in PC3 cells. Put plainly: mTOR target engagement assay, immunofluorescent cell-based, mTORC2 readout. The following applies: Homo sapiens, PC-3, 1.5 h, rated class, 90 min treatment. Summed up:
(§1)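 Read-out is immunofluorescence intensity, normalized to DMSO-only wells and fitted to a sigmoidal Hill equation for IC50. The mTORC1 arm probes phospho-4E-BP1 Thr37/46 and the mTORC2 arm phospho-AKT Ser473.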

The target in the next assay is human mTOR enzyme (Homo sapiens, UniProt P42345). Put plainly: HTRF mTOR enzyme (kinase) assay. The following applies: rated class; 5 μM ATP, 0.2 μM GST-S6K; read-out: hMTOR IC50. It is filed as biochemical. A general note: Time-resolved FRET reads energy transfer from a long-lived donor to a nearby acceptor.
human mTOR enzyme, sequence (P42345 1360-2549 limits assumed): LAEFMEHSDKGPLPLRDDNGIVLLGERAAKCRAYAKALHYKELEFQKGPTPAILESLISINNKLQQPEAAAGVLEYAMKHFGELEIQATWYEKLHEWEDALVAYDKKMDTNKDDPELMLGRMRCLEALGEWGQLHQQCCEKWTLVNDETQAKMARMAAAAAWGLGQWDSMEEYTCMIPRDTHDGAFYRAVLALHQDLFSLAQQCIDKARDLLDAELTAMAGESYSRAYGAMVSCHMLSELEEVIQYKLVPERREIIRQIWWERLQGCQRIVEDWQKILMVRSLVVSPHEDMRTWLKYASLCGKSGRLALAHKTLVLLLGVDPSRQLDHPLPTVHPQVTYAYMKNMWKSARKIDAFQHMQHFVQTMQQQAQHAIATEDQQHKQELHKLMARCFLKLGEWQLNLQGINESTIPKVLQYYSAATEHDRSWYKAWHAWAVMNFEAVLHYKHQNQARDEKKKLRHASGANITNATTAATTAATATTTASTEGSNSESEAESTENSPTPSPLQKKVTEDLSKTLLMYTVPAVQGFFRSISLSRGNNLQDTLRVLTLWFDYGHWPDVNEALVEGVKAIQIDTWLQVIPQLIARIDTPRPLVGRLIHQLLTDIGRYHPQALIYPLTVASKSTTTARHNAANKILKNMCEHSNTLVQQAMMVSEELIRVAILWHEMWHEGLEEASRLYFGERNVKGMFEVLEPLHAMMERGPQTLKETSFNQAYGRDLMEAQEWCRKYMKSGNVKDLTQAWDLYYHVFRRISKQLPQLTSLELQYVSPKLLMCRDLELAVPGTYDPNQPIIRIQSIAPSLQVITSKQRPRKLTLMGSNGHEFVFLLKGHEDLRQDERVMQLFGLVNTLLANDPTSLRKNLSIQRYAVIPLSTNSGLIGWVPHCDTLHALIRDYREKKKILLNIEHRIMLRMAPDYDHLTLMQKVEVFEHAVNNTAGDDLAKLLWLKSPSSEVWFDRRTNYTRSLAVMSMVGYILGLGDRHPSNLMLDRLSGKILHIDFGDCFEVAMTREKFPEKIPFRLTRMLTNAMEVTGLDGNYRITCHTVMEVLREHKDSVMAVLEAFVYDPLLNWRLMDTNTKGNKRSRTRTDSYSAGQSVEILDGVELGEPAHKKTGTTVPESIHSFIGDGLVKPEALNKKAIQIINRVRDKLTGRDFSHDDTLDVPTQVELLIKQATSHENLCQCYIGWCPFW
In assay [2] the test system is mTORC1 activity: phosphorylated 4E-BP1 Thr37/46 (p4E-BP1 Thr37/46) in PC3 cells. Put plainly: mTOR target engagement assay, immunofluorescent cell-based, mTORC1 readout. The following applies: Homo sapiens, PC-3, 1.5 h, rated class, 90 min treatment, read-out: P4EBP1 IC50. In outline: as §1

The term pIC50 denotes the negative decadic logarithm of the IC50, by convention in mol/L. In the case of `COCCO[C@]1(C(=O)NO)CC[C@@H](c2nc3c(-c4ccc(-c5ccccc5)nc4)cnn3c(N)c2S(C)(=O)=O)CC1` [Compound 104, (1R,4R)-4-(7-amino-6-(methylsulfonyl)-3-(6-phenylpyridin-3-yl)pyrazolo[1,5-a]pyrimidin-5-yl)-N-hydroxy-1-(2-methoxyethoxy)-cyclohexane-carboxamide], the pIC50 (in assay [1]; on human mTOR enzyme; in assay [2]) was 7.00 to 9.00 each time.

As for `COCCO[C@]1(C(=O)O)CC[C@@H](c2nc3c(-c4ccc(-c5ccc(O)c(F)c5)nc4)cnn3c(N)c2S(C)(=O)=O)CC1` [Compound 48, (1R,4R)-4-(7-amino-3-(6-(3-fluoro-4-hydroxyphenyl)pyridin-3-yl)-6-(methylsulfonyl)-pyrazolo[1,5-a]-pyrimidin-5-yl)-1-(2-methoxyethoxy)-cyclohexanecarboxylic acid], the pIC50 is 4.82 to 5.30 in assay [1], 7.00 to 9.00 on human mTOR enzyme and 4.82 to 5.30 in assay [2].

With `COCCO[C@]1(C(=O)NOCCO)CC[C@@H](c2nc3c(-c4cnn(-c5ccccc5)c4)cnn3c(N)c2S(C)(=O)=O)CC1` [Compound 100], the pIC50 (in assay [1]; on human mTOR enzyme; in assay [2]) was 7.00 to 9.00 each time.

On to `COCCO[C@]1(C(=O)NO)CC[C@H](c2nc3c(-c4ccc(-c5ncc[nH]5)nc4)cnn3c(N)c2C(C)=O)CC1` [Compound 114], for which the pIC50 was 6.00 to 7.00 in assay [1], 7.00 to 9.00 at human mTOR enzyme and 6.00 to 7.00 in assay [2].

Regarding `COCCO[C@]1(C(=O)NO)CC[C@@H](c2nc3c(-c4ccc(-c5ccccc5)nc4)cnn3c(N)c2C(C)=O)CC1` [Compound 102, (1R,4R)-4-(6-acetyl-7-amino-3-(6-phenylpyridin-3-yl)pyrazolo[1,5-a]pyrimidin-5-yl)-N-hydroxy-1-(2-methoxyethoxy)-cyclohexane-carboxamide], the negative-log IC50 (pIC50) was 6.00 to 7.00 in assay [1], 7.00 to 9.00 at human mTOR enzyme and 6.00 to 7.00 in assay [2].

For the compound `CO[C@]1(C(=O)O)CC[C@@H](c2nc3c(-c4ccc(-c5ccccc5)nc4)cnn3c(N)c2C(C)=O)CC1` [Compound 35, (1R,4R)-4-(6-acetyl-7-amino-3-(6-phenylpyridin-3-yl)pyrazolo[1,5-a]pyrimidin-5-yl)-1-methoxycyclohexane-carboxylic acid], the pIC50 in assay [1] is 7.00 to 9.00; at human mTOR enzyme, 7.00 to 9.00; in assay [2] it was 6.00 to 7.00.

As to `COCCO[C@]1(C(=O)O)CC[C@@H](c2nc3c(-c4ccc(-c5ccccn5)nc4)cnn3c(N)c2S(C)(=O)=O)CC1` [Compound 50, (1R,4R)-4-(3-(2,2′-bipyridin-5-yl)-7-amino-6-(methylsulfonyl)-pyrazolo[1,5-a]-pyrimidin-5-yl)-1-(2-methoxyethoxy)-cyclohexanecarboxylic acid], the pIC50 was 6.00 to 7.00 in assay [1], 7.00 to 9.00 at human mTOR enzyme and 6.00 to 7.00 in assay [2].

`COCCO[C@]1(C#N)CC[C@@H](c2nc3c(-c4cnn(-c5ccccc5)c4)cnn3c(N)c2S(C)(=O)=O)CC1` [Compound 117, (1R,4R)-4-(7-amino-6-(methylsulfonyl)-3-(1-phenyl-1H-pyrazol-4-yl)pyrazolo[1,5-a]pyrimidin-5-yl)-1-(2-methoxyethoxy)cyclohexanecarbonitrile]: the pIC50 in assay [1] is 6.00 to 7.00; at human mTOR enzyme it was 7.00 to 9.00; in assay [2], 5.70 to 6.00.

As for `COCCO[C@]1(C(=O)c2nnc[nH]2)CC[C@@H](c2nc3c(-c4ccc(-c5ccccc5)nc4)cnn3c(N)c2S(C)(=O)=O)CC1` [Compound 125, ((1R,4R)-4-(7-amino-6-(methylsulfonyl)-3-(6-phenylpyridin-3-yl)pyrazolo[1,5-a]pyrimidin-5-yl)-1-(2-methoxyethoxy)cyclohexyl)(4H-1,2,4-triazol-3-yl)methanone], the pIC50 (in assay [1]; on human mTOR enzyme; in assay [2]) was 7.00 to 9.00 in each case.

On to `COCCO[C@]1(C(=O)O)CC[C@@H](c2nc3c(-c4cnn(-c5ccccc5)c4)cnn3c(N)c2S(C)(=O)=O)CC1` [Compound 40, (1R,4R)-4-(7-amino-6-(methylsulfonyl)-3-(1-phenyl-1H-pyrazol-4-yl)pyrazolo[1,5-a]pyrimidin-5-yl)-1-(2-methoxyethoxy)cyclohexanecarboxylic acid], for which the negative-log IC50 (pIC50) in assay [1] is 7.00 to 9.00; at human mTOR enzyme, 7.00 to 9.00; in assay [2] it was 6.00 to 7.00.

For `COCCO[C@]1(C(=O)NS(C)(=O)=O)CC[C@@H](c2nc3c(-c4cnn(-c5ccccc5)c4)cnn3c(N)c2C(C)=O)CC1` [Compound 70, (1R,4R)-4-(6-acetyl-7-amino-3-(1-phenyl-1H-pyrazol-4-yl)pyrazolo[1,5-a]pyrimidin-5-yl)-1-(2-methoxyethoxy)-N-(methylsulfonyl)cyclohexanecarboxamide], the pIC50 in assay [1] was 6.00 to 7.00; on human mTOR enzyme, 7.00 to 9.00; in assay [2], 6.00 to 7.00.

In the case of `Nc1c(Br)c([C@H]2CC[C@@](OCCN3CCOCC3)(C(=O)O)CC2)nc2c(-c3cnn(-c4ccccc4)c3)cnn12` [Compound 67, (1R,4R)-4-(7-amino-6-bromo-3-(1-phenyl-1H-pyrazol-4-yl)pyrazolo[1,5-a]pyrimidin-5-yl)-1-(2-morpholinoethoxy) cyclohexanecarboxylic acid], the values for the pIC50 (in assay [1]; on human mTOR enzyme; in assay [2]) were 6.00 to 7.00, 7.00 to 9.00 and 6.00 to 7.00, respectively.

In the case of `Nc1c(Br)c(C2CCC(O)(C(=O)O)CC2)nc2c(-c3ccc(-c4ccccc4)nc3)cnn12` (stereo not drawn) [Compound 131, 4-(7-amino-6-bromo-3-(6-phenylpyridin-3-yl)pyrazolo[1,5-a]pyrimidin-5-yl)-1-hydroxycyclohexanecarboxylic acid], the values for the pIC50 (in assay [1]; on human mTOR enzyme; in assay [2]) were 5.70 to 6.00, 7.00 to 9.00 and 5.30 to 5.70, respectively.

As to `COCCOC1(C(=O)NS(C)(=O)=O)CCC(c2nc3c(-c4cnn(-c5ccccc5)c4)cnn3c(N)c2S(C)(=O)=O)CC1` (stereo not drawn) [Compound 71, 4-(7-amino-6-(methylsulfonyl)-3-(1-phenyl-1H-pyrazol-4-yl)pyrazolo[1,5-a]pyrimidin-5-yl)-1-(2-methoxyethoxy)-N-(methylsulfonyl)cyclohexanecarboxamide], the pIC50 is 5.70 to 6.00 in assay [1], 7.00 to 9.00 on human mTOR enzyme and 5.70 to 6.00 in assay [2].

Take `COCCO[C@]1(C(=O)n2ccc(=O)[nH]2)CC[C@@H](c2nc3c(-c4cnn(-c5ccccc5)c4)cnn3c(N)c2S(C)(=O)=O)CC1` [Compound 94, 1-((1R,4R)-4-(7-amino-6-(methylsulfonyl)-3-(1-phenyl-1H-pyrazol-4-yl)pyrazolo[1,5-a]pyrimidin-5-yl)-1-(2-methoxyethoxy)-cyclohexanecarbonyl)-1H-pyrazol-3(2H)-one]: the figures for the pIC50 (in assay [1]; on human mTOR enzyme; in assay [2]) were 7.00 to 9.00, 7.00 to 9.00 and 6.00 to 7.00, respectively.

Turning to `COCCO[C@]1(C(=O)NOC)CC[C@@H](c2nc3c(-c4cnn(-c5ccccc5)c4)cnn3c(N)c2S(C)(=O)=O)CC1` [Compound 89, (1R,4R)-4-(7-amino-6-(methylsulfonyl)-3-(1-phenyl-1H-pyrazol-4-yl)pyrazolo[1,5-a]pyrimidin-5-yl)-N-methoxy-1-(2-methoxyethoxy)-cyclohexane-carboxamide], the pIC50 (in assay [1]; at human mTOR enzyme; in assay [2]) was 7.00 to 9.00 throughout.

As for `CC(=O)c1c(C2CCC(O)(CO)CC2)nc2c(-c3cnc(-c4ccccc4)nc3)cnn2c1N` (stereo not drawn) [Compound 158, 1-(7-amino-5-(4-hydroxy-4-(hydroxymethyl)-cyclohexyl)-3-(2-phenylpyrimidin-5-yl)pyrazolo[1,5-a]pyrimidin-6-yl)ethanone], the figures for the pIC50 (in assay [1]; on human mTOR enzyme; in assay [2]) were 6.00 to 7.00, 7.00 to 9.00 and 6.00 to 7.00, respectively.

For `CO[C@]1(C(=O)O)CC[C@@H](c2nc3c(-c4cnn(-c5ccccc5)c4)cnn3c(N)c2Br)CC1` [Compound 30, (1R,4R)-4-(7-amino-6-bromo-3-(1-phenyl-1H-pyrazol-4-yl)pyrazolo[1,5-a]pyrimidin-5-yl)-1-methoxycyclohexane-carboxylic acid], the figures for the pIC50 (in assay [1]; on human mTOR enzyme; in assay [2]) were 6.00 to 7.00, 7.00 to 9.00 and 6.00 to 7.00, respectively.

As for `CO[C@]1(C(=O)O)CC[C@H](c2nc3c(-c4ccc(-c5ccccc5)nc4)cnn3c(N)c2C(C)=O)CC1` [Compound 34, (1S,4S)-4-(6-acetyl-7-amino-3-(6-phenylpyridin-3-yl)pyrazolo[1,5-a]pyrimidin-5-yl)-1-methoxycyclohexanecarboxylic acid], the pIC50 is 6.00 to 7.00 in assay [1], 7.00 to 9.00 at human mTOR enzyme and 6.00 to 7.00 in assay [2].

With `COCCO[C@]1(c2nnc(N)o2)CC[C@@H](c2nc3c(-c4cnn(-c5ccccc5)c4)cnn3c(N)c2S(C)(=O)=O)CC1` [Compound 108, 5-((1R,4R)-4-(7-amino-6-(methylsulfonyl)-3-(1-phenyl-1H-pyrazol-4-yl)pyrazolo[1,5-a]pyrimidin-5-yl)-1-(2-methoxyethoxy)cyclohexyl)-1,3,4-oxadiazol-2-amine], the negative-log IC50 (pIC50) in assay [1] was 7.00 to 9.00; at human mTOR enzyme, 7.00 to 9.00; in assay [2] it was 6.00 to 7.00.

With `COCCO[C@]1(C(=O)c2nnc[nH]2)CC[C@@H](c2nc3c(-c4cnn(-c5ccccc5)c4)cnn3c(N)c2S(C)(=O)=O)CC1` [Compound 122, ((1R,4R)-4-(7-amino-6-(methylsulfonyl)-3-(1-phenyl-1H-pyrazol-4-yl)pyrazolo[1,5-a]pyrimidin-5-yl)-1-(2-methoxyethoxy)cyclohexyl)(4H-1,2,4-triazol-3-yl)methanone], the negative logarithm of the IC50 (pIC50) (in assay [1]; at human mTOR enzyme; in assay [2]) was 7.00 to 9.00 each time.
